Data taken from US10793915B2, “Context dependent diagnostics test for guiding cancer treatment” (Eutropics Pharmaceuticals, Inc., priority 2015, dated 2020).

Tests used:
[1] = tested on: three suspension cancer cell lines; experiment: PraediCare Dx FACS BH3 profiling with BH3 mimetic compound applied to permeabilized cells; type: cell-based; details: cell lines primed by NOXA
From the text: To further probe MCL-1 dependencies we explored the utility of certain BH3 mimetic compounds to provide an alternative to the NOXA readout to determine MCL-1 dependency in cancer cells. Our approach was to directly apply membrane permeable BH3 mimetic compounds that selectively target MCL1. Doing so would add the advantage of directly observing on target activity of the therapeutic agent.

[2] = tested on: AML blasts from patient peripheral blood or bone marrow; experiment: BH3 profiling (mitochondrial profiling): JC-1 mitochondrial depolarization (% priming) of gated AML blasts exposed to BH3 peptides; type: cell-based, human; details: for Median CR (n = 23) / Median CR (n = 13): complete remission patients; for Median NR (n = 29) / Median NR (n = 18): non-responders
Procedure: Rows that are shaded grey are samples that failed the acceptance criteria of BH3 profiling during processing. […] Signal to noise is a measure of the DMSO JC-1 red mean fluorescence intensity (MFI) over the CCCP JC-1 read MFI. The cell counts and percent viability were determined by manual cell counting with trypan blue exclusion. Percent blasts are the percentages of CD45-dim, CD3/CD20 negative, and SSC-low of the permeabilized viable cells. All BH3 profiling was performed on those gated blast cells.
Briefly, frozen, extracted leukocyte samples were rapidly thawed, and cell viability was determined by Trypan Blue exclusion. Cells were washed in FACS buffer (1x PBS with 2% FBS) and immunophenotyped using fluorescently labeled CD45, CD3, and CD20 monoclonal antibodies. Cells were then resuspended in Newmeyer buffer (10 mM Trehalose, 10 mM HEPES, 80 mM KCl, 20 μM EGTA, 20 μM EDTA, 5 mM succinate, pH 7.4) for the perturbation step. The BH3 peptides were diluted in Newmeyer buffer to make working solutions resulting in final concentrations of: BIM (100 μM), BIM (0.1 μM), NOXA (100 μM), Puma (10 μM), HRK (100 μM), BAD (100 μM), and BID (1.0 μM). DMSO and CCCP were used as negative and positive peptide controls. Digitonin and oligomycin were added to individual FACS tubes, followed by the BH3 peptides. Cells were then added to the FACS tubes and incubated for 2 hours and 15 minutes at room temperature, in order for cell permeabilization, delivery of peptides or compounds, and mitochondrial depolarization to occur. After the incubation, JC-1 dye was prepared in Newmeyer buffer and added to directly to the treated cells. An additional tube of cells that was not treated with a peptide or compound was stained with propidium iodide (PI) to ensure that cells were effectively permeabilized by the digitonin. After 45 minutes of incubation with JC-1, cells were analyzed on a three laser BD FACSCanto II. AML Blasts were gated based on four parameters: 1) permeabilization (as determined by PI staining), 2) singlet discrimination based on SSC, 3) CD45 dim and CD3/CD20 negative, and 4) SSC low. The median JC-1 red fluorescence of the gated blast population was then used to calculate % depolarization as compared to DMSO (negative) and CCCP (positive) controls.
For each peptide, the percentage priming was calculated using the following formula that determines the priming based on the DMSO negative control as completely unprimed and the CCCP as a 100% primed reference:
For analysis, all patients not classified as CR were treated as non-responders [Minimal Residual Disease (MRD), Partial Remission (PR), and TF (treatment failure)]. Student's t-tests, Mann-Whitney rank-sum non-parametric tests, multi-variate logistic regression, and ROC curve analyses, between the BH3 peptides (and other tumor characteristics, such as cytogenetics, etc.) and response, were calculated using GraphPad Prism Version 5.04 and MedCalc Version 14.8.1.

[3] = Table 6, median percentage priming, all samples
[4] = Table 8, median percentage priming, bone marrow samples only
[5] = median percentage priming, bone marrow samples only

Row | Molecule | mitochondrial response to the compound (priming) [1] | Median CR (n = 23) [2, 3] | Median NR (n = 29) [2, 3] | Median CR (n = 13) [2, 4] | Median NR (n = 18) [2, 4] | median depolarization (priming) ([2]; all responses, all profiled patient samples) [%] | NOXA priming in patients that did not respond ([2]; bone marrow samples only) [%] | NOXA priming in patients that respond to treatment ([2]; bone marrow samples only) [%] | Median CR (n = 23) ([2]; median percentage priming of blasts, all samples (blood and marrow)) | Median NR (n = 29) ([2]; median percentage priming of blasts, all samples (blood and marrow), BIM 100/0.1 μM, NOXA 100 μM, Puma 10 μM, HRK 100 μM, BAD 100 μM, BID 1.0 μM) | Median CR (n = 13) [2, 5] | Median NR (n = 18) [2, 5]
1 | CCN1CCN(C(c2ccc(C(F)(F)F)cc2)c2ccc3cccnc3c2O)CC1 (stereo not drawn) [EU5346] | responsive |  |  |  |  |  |  |  |  |  |  | 
2 | NOXA: NOXA BH3 peptide, 100 μM; in some aspects AELPPEFAAQLRKIGDKVYC (SEQ ID NO:1) (listed as Homo sapiens) |  | 17.2 | 20.2 | 44.5 | 5.2 | 16.0 | 5.2 | 44.5 | 17.2 | 20.2 | 44.5 | 5.2
